Experiments:
Experiment in all cases: area under growth-rate inhibition curve (AUC GRI) (dimensionless (GR-based AUC)); higher = less growth inhibition
Conditions in all cases: exposure time: 72 h; concentrations: 0.1, 1, 10 uM
MDA-MB-231 = tested on: MDA-MB-231
Summary of the method: (§1)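 The area under the growth-rate inhibition curve was measured in six breast cancer cell line models, covering triple-negative lines and HER2+ lines, both parental and resistant to a two-drug combination. Cells were exposed to compound at 0.1, 1 or 10 µM for 72 h, fixed in 4% paraformaldehyde, and nuclei were stained with Hoechst 33342 or DAPI for imaging and counting. Day 0 plates, untreated Day 3 plates and DMSO controls served to correct growth across 2 biological replicates.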

BT474-P = tested on: BT474-P
Summary of the method: as §1

MDA-MB-468 = tested on: MDA-MB-468
Summary of the method: as §1

BT474-LTR = tested on: BT474-LTR
Summary of the method: as §1

SKBR3-LTR = tested on: SKBR3-LTR
Summary of the method: as §1

SKBR3-P = tested on: SKBR3-P
Summary of the method: as §1

Structure (SMILES) | area under growth-rate inhibition curve (MDA-MB-231) | area under growth-rate inhibition curve (BT474-P) | area under growth-rate inhibition curve (MDA-MB-468) | area under growth-rate inhibition curve (BT474-LTR) | area under growth-rate inhibition curve (SKBR3-LTR) | area under growth-rate inhibition curve (SKBR3-P)
CN1CC(C(=O)NC2(C)OC3(O)C4CCCN4C(=O)C(Cc4ccccc4)N3C2=O)C=C2c3cccc4[nH]cc(c34)CC21 (centres undefined) [ergotamine] | 1.03 | 1.01 | 1 | 1.03 | 1.06 | 1.02
Nc1cc(-c2ccncc2)c[nH]c1=O [inamrinone] | 1.04 | 0.994 | 1.06 | 1.03 | 1.05 | 1.03
CC(C)C1NC(=O)C(CCCCN)NC(=O)C(Cc2c[nH]c3ccccc23)NC(=O)C(Cc2ccc(O)cc2)NC(=O)C(NC(=O)C(N)Cc2ccc3ccccc3c2)CSSCC(C(=O)NC(C(N)=O)C(C)O)NC1=O (centres undefined) [lanreotide] | 0.986 | 1 | 1.02 | 1 | 1.01 | 1.01
Nc1cccc2c1CN(C1CCC(=O)NC1=O)C2=O (centres undefined) [lenalidomide] | 1.04 | 1.01 | 1.04 | 1.03 | 1.06 | 1.02
CCOC(=O)C1(c2ccccc2)CCN(C)CC1 [meperidine] | 1.04 | 0.992 | 1.04 | 1.04 | 1.06 | 1.02
COc1ccc(OC)c(C(O)C(C)N)c1 (centres undefined) [methoxamine] | 1.05 | 1.01 | 1.05 | 1.07 | 1.04 | 1.05
CCc1c(C)[nH]c2c1C(=O)C(CN1CCOCC1)CC2 (centres undefined) [molindone] | 1.05 | 1.01 | 1.06 | 1.04 | 1.05 | 1.03
CCN(CC)CCOC(=O)c1ccc(N)cc1.[Cl-].[H+] [procaine] | 1.03 | 1.02 | 1.03 | 1.05 | 1.07 | 1.01
Cc1ccc(/C(=C\CN2CCCC2)c2ccccn2)cc1.Cl [trans-Triprolidine hydrochloride] | 1.03 | 1.03 | 1.03 | 1.05 | 1.05 | 1.03
